Patent US11319285B2, “N-acylated methionine sulfoxides as food flavouring compounds” (Givaudan S.A., priority 2015, dated 2022)

Assays:
[1] = Expert taster comparison in a cheese sauce; settings: 0.5 ppm in Maggie Saus Base with 0.05 g ethanol
Description: Samples were evaluated by expert tasters. Tasters were asked to describe the samples focusing on authentic taste, mouthfeel, fullness, salty-ness, salivation, umami, sweetness, juiciness, richness, long lastingness and fattiness.
Comparison in a Cheese Sauce
Base is a Maggie Saus Base with 0.05 g ethanol

[2] = Expert taster comparison in UNOX 'Franse uiensoep' onion soup; settings: 10 ppb in UNOX 'Franse uiensoep'
Description: (§1) Samples were evaluated by expert tasters. Tasters were asked to describe the samples focusing on authentic taste, mouthfeel, fullness, salty-ness, salivation, umami, sweetness, juiciness, richness, long lastingness and fattiness
Base is UNOX ‘Franse uiensoep’

[3] = Expert taster comparison in Campbell's French onion soup; settings: 10 ppb in Campbell's French onion soup
Description: as §1
Base is Campbell's® French onion soup

[4] = Expert taster comparison in a cheese onion crisp; settings: 10 ppb in crisp with proprietary cheese onion powder flavoring @ 6%
Description: as §1
Comparison in a Cheese Onion Crisp
Base is a crisp with proprietary cheese onion powder flavoring @ 6%

| SMILES | taste description versus base [1] | taste description versus base [2] | taste description versus base [3] | taste description versus base [4] |
| --- | --- | --- | --- | --- |
| CCCCCCCC/C=C\CCCCCCCC(=O)N[C@H](C[S+](C)[O-])C(=O)O (stereo partly drawn) [(2S)-3-(methylsulfinyl)-2-oleamidopropanoic acid] | salt/umami/fullness/cheesiness level enhanced | – | – | – |
| CCCCCCCC/C=C\CCCCCCCC(=O)N[C@@H](CC[S+](C)[O-])C(=O)O (stereo partly drawn) [Met-SO C18:1, (2S)-4-(methylsulfinyl)-2-oleamidobutanoic acid] | – | slightly stronger in salt; onion character increased | slightly stronger in salt; onion character slightly enhanced | salt/taste level enhanced; onion character more fried |
